The values that follow come from PMC12448936, “Odorant Receptors Mediating Avoidance of Toxic Mustard Oils in Drosophila melanogaster Are Expanded in Herbivorous Relatives” (Molecular Biology and Evolution, 2025).

Structures are written as SMILES. Where two headings read alike, the source gives them in different places. Where only a bound is given, the exact number is not on record here.

Assay [1] addresses T1, S. flava Or42a3 (Scaptomyza flava, UniProt Z9ZJ76RJY6).
T1 construct: full coding region (UTRs removed) in UAST-attB, attP40 site; D. melanogaster at1 OSNs (Or67d null), host Orco; with Odorant receptor coreceptor (Drosophila melanogaster, endogenous in host neuron)
T1 sequence (Z9ZJ76RJY6 1-407): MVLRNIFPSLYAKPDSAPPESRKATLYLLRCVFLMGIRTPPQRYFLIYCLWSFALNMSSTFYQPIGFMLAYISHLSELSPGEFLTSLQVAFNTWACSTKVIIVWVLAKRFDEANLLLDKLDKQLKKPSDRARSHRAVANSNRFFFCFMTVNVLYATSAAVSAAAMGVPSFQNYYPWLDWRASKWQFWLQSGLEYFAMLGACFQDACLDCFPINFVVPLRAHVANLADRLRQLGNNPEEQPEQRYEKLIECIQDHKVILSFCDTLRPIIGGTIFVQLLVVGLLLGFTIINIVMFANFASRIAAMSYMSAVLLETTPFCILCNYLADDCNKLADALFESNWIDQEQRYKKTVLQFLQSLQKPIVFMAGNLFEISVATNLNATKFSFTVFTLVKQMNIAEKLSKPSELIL
T1 sequence (Q9VNB5 1-486 partner): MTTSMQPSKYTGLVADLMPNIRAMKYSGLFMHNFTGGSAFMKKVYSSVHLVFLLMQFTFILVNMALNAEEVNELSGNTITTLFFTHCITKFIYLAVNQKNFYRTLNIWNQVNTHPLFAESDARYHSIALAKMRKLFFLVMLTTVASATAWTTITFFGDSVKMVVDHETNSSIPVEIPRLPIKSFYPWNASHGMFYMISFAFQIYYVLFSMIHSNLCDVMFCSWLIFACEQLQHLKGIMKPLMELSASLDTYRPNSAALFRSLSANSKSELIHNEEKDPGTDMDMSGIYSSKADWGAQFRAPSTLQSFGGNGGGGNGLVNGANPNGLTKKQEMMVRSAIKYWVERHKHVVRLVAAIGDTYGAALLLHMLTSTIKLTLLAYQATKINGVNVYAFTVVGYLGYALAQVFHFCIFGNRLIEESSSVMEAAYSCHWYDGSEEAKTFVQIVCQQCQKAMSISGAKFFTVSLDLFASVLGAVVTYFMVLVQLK
As to the kind of experiment: single sensillum recording, at1 empty neuron. The class given is cell-based.

In the next assay the target is T2, S. pallida Or42a2 (Scaptomyza pallida, UniProt Z9QWX1R862).
T2 construct: full coding region in UAST-attB, attP40 site; D. melanogaster at1 OSNs (Or67d null), host Orco; with Odorant receptor coreceptor (Drosophila melanogaster, endogenous in host neuron)
T2 sequence (Z9QWX1R862 1-406): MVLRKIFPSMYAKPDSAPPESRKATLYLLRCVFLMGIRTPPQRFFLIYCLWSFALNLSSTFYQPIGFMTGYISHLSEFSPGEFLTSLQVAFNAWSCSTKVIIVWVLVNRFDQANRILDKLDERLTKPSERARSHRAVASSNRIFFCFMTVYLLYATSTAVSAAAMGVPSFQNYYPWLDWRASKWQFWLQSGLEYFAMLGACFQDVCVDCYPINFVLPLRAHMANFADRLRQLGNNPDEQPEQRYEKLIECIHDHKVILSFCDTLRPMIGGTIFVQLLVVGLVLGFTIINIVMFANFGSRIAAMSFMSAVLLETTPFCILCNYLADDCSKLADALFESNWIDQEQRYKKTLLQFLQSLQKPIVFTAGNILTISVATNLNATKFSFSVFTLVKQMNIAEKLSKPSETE
T2 sequence (Q9VNB5 1-486 partner): T1 sequence (Q9VNB5 1-486 partner)
As to the kind of experiment: single sensillum recording, at1 empty neuron. In kind it is cell-based. Conditions: bound given for three odorants together.

The target of a further assay is T3, S. flava Or42a4 (Scaptomyza flava, UniProt Z9LG74I6Y6).
T3 construct: full coding region (UTRs removed) in UAST-attB, attP40 site; D. melanogaster at1 OSNs (Or67d null), host Orco; with Odorant receptor coreceptor (Drosophila melanogaster, endogenous in host neuron)
T3 sequence (Z9LG74I6Y6 1-404): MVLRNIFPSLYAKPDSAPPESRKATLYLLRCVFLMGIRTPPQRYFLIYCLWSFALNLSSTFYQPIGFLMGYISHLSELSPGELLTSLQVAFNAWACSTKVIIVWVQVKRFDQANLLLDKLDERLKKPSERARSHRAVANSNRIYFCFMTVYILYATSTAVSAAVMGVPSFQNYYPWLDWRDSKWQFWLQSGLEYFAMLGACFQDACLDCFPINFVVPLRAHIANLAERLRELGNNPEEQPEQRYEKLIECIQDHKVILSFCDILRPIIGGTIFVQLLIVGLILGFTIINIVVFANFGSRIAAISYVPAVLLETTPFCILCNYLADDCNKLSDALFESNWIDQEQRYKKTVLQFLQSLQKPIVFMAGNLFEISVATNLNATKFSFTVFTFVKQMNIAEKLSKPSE
T3 sequence (Q9VNB5 1-486 partner): T1 sequence (Q9VNB5 1-486 partner)
As to the kind of experiment: single sensillum recording, at1 empty neuron. In kind it is cell-based.

For a further assay, the target named is T4, D. melanogaster Or42a (Drosophila melanogaster, UniProt Q9V9I2).
T4 construct: full length UAS transgene in D. melanogaster at1 OSNs (Or67d-Gal4 null background), endogenous Orco; EC50 from native pb1a OSNs; with Odorant receptor coreceptor (Drosophila melanogaster)
T4 sequence (Q9V9I2 1-406): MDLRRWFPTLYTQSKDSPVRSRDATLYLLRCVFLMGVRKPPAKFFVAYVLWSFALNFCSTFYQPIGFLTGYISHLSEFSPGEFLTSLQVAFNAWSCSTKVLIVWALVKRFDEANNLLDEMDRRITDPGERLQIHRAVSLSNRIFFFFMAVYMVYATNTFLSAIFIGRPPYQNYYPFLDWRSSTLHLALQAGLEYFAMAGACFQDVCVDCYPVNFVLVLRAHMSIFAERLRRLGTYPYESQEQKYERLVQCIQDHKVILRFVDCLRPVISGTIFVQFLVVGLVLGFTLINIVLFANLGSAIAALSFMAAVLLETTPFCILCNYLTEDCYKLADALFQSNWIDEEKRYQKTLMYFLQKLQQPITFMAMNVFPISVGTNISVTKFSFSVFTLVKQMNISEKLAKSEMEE
T4 sequence (Q9VNB5 1-486 partner): T1 sequence (Q9VNB5 1-486 partner)
The assay is described as follows: single sensillum recording, at1 empty neuron. In kind it is cell-based. Conditions: bound given for three odorants together.

The subject of assay [2] is S. flava Or42a3. Conditions: heterozygous UAS transgene, Fig. 8 legend prints S301P.
The target in the next assay is T5, S. flava Or42a2 (Scaptomyza flava, UniProt Z9B9G2NIU8).
T5 construct: full coding region (UTRs removed) in UAST-attB, attP40 site; D. melanogaster at1 OSNs (Or67d null), host Orco; with Odorant receptor coreceptor (Drosophila melanogaster, endogenous in host neuron)
T5 sequence (Z9B9G2NIU8 1-404): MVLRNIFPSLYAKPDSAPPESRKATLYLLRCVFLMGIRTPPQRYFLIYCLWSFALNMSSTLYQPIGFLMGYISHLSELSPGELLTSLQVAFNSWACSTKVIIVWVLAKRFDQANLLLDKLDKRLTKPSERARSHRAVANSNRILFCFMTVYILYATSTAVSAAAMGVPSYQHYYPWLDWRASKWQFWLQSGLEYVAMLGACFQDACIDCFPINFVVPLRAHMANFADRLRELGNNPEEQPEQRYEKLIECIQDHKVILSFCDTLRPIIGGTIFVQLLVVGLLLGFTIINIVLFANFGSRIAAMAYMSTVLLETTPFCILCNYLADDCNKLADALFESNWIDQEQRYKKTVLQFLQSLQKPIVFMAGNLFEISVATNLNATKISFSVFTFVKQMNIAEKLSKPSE
T5 sequence (Q9VNB5 1-486 partner): T1 sequence (Q9VNB5 1-486 partner)
The assay is described as follows: single sensillum recording, at1 empty neuron. In kind it is cell-based. Conditions: volatile stimulus 1:100 vol/vol in mineral oil.

Setting [3] is: volatile stimulus 1:100 vol/vol in DMSO.
Where [4] appears, read: volatile stimulus 1:100 vol/vol in mineral oil.

On to `CCC1CCC(=O)O1` (stereo not drawn) [γ-hexalactone], for which the spikes/s result at S. flava Or42a3 [1] (setting [3]) was “S. flava Or42a3 showed a moderate response to γ-hexalactone”; on S. pallida Or42a2 (setting [3]), above 96 spikes/s; on S. flava Or42a4 (setting [3]), below 10 spikes/s; on D. melanogaster Or42a (setting [3]), above 79 spikes/s; in the assay on S. flava Or42a3 [2] (setting [3]) it was “at1 population responses to BITC (white bars) and to γ-hexalactone (gray bars)”.

With `CCCCN=C=S` [BITC, butyl ITC], the spikes/s result in the assay with S. flava Or42a3 [2] (setting [4]) was “The A181D S307P variant and the two S. flava paralogs showed similar moderate responses to BITC”.

Consider `CCC/C=C/C=O` [trans-2-hexenal], for which the spikes/s entry at S. flava Or42a3 [1] (setting [4]) was “S. flava Or42a3 or S. flava Or42a4 were also very sensitive to AITC and trans-2-hexenal”; at S. pallida Or42a2 (setting [4]), above 96 spikes/s; on S. flava Or42a4 (setting [4]) it was “S. flava Or42a3 or S. flava Or42a4 were also very sensitive to AITC and trans-2-hexenal”; on D. melanogaster Or42a (setting [4]), above 79 spikes/s.

Regarding `C=CCN=C=S` [AITC, allyl isothiocyanate], the spikes/s entry at S. flava Or42a3 [1] (setting [4]) is “S. flava Or42a3 or S. flava Or42a4 were also very sensitive to AITC and trans-2-hexenal”; at S. flava Or42a2, “S. flava Or42a2 was only activated by AITC”; at S. pallida Or42a2 (setting [4]) it was above 96 spikes/s; on S. flava Or42a4 (setting [4]), “S. flava Or42a3 or S. flava Or42a4 were also very sensitive to AITC and trans-2-hexenal”; at D. melanogaster Or42a (setting [4]), above 79 spikes/s.
